PubChem BioAssay (NCI)
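The concentration for 50% growth inhibition is given as GI50. TGI: concentration producing complete growth inhibition.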

Columns and labels:
Experiment in all cases: DTP human tumour cell line panel, 384-well format
HCT-15 colon = test system: HCT-15 colon
NCI-H322M lung = test system: NCI-H322M lung
A498 renal = test system: A498 renal
MOLT-4 leukemia = test system: MOLT-4 leukemia
RPMI-8226 leukemia = test system: RPMI-8226 leukemia
SNB-19 CNS = test system: SNB-19 CNS
SK-OV-3 ovarian = test system: SK-OV-3 ovarian
IGROV1 ovarian = test system: IGROV1 ovarian
CAKI-1 renal = test system: CAKI-1 renal
SNB-75 CNS = test system: SNB-75 CNS
UACC-257 melanoma = test system: UACC-257 melanoma
NCI/ADR-RES ovarian = test system: NCI/ADR-RES ovarian
SF-295 CNS = test system: SF-295 CNS
BT-549 breast = test system: BT-549 breast
HOP-62 NSCLC = test system: HOP-62 NSCLC
MALME-3M melanoma = test system: MALME-3M melanoma
MDA-MB-468 breast = test system: MDA-MB-468 breast
OVCAR-4 ovarian = test system: OVCAR-4 ovarian
NCI-H226 lung = test system: NCI-H226 lung
MDA-MB-231 breast = test system: MDA-MB-231 breast
UO-31 renal = test system: UO-31 renal
SW-620 colon = test system: SW-620 colon
SK-MEL-5 melanoma = test system: SK-MEL-5 melanoma
SR leukemia = test system: SR leukemia
SK-MEL-28 melanoma = test system: SK-MEL-28 melanoma
PC-3 prostate = test system: PC-3 prostate
OVCAR-3 ovarian = test system: OVCAR-3 ovarian
M14 melanoma = test system: M14 melanoma
HL-60(TB) leukemia = test system: HL-60(TB) leukemia

C=CC(=O)N[C@H]1C=C(C)c2c(-c3cnc4ccccc4c3)c3c(N)ncnc3n2C1
GI50 (HCT-15 colon): 25.2 µM | TGI (HCT-15 colon): 82 µM | GI50 (NCI-H322M lung): 0.109 µM | TGI (NCI-H322M lung): 16.4 µM | GI50 (A498 renal): 2.11 µM | TGI (A498 renal): 20.1 µM | GI50 (MOLT-4 leukemia): 5.47 µM | TGI (MOLT-4 leukemia): 17.5 µM | GI50 (RPMI-8226 leukemia): 10 µM | TGI (RPMI-8226 leukemia): 22.1 µM | GI50 (SNB-19 CNS): 27 µM | TGI (SNB-19 CNS): 73.3 µM | GI50 (SK-OV-3 ovarian): 1.61 µM | TGI (SK-OV-3 ovarian): 15.1 µM | GI50 (IGROV1 ovarian): 0.683 µM | TGI (IGROV1 ovarian): 8.36 µM | GI50 (CAKI-1 renal): 3.49 µM | TGI (CAKI-1 renal): 21.3 µM | GI50 (SNB-75 CNS): 17.6 µM | TGI (SNB-75 CNS): 45.9 µM | GI50 (UACC-257 melanoma): 18.9 µM | TGI (UACC-257 melanoma): 48 µM | GI50 (NCI/ADR-RES ovarian): 34.1 µM | TGI (NCI/ADR-RES ovarian): > 100 µM | GI50 (SF-295 CNS): 29.5 µM | TGI (SF-295 CNS): > 100 µM | GI50 (BT-549 breast): 16.8 µM | TGI (BT-549 breast): 35.7 µM | GI50 (HOP-62 NSCLC): 17.1 µM | TGI (HOP-62 NSCLC): 76 µM | GI50 (MALME-3M melanoma): 11.7 µM | TGI (MALME-3M melanoma): 24.1 µM | GI50 (MDA-MB-468 breast): 0.0243 µM | TGI (MDA-MB-468 breast): 0.0646 µM | GI50 (OVCAR-4 ovarian): 16.2 µM | TGI (OVCAR-4 ovarian): 65.5 µM | GI50 (NCI-H226 lung): 5.39 µM | TGI (NCI-H226 lung): 26.3 µM | GI50 (MDA-MB-231 breast): 13.7 µM | TGI (MDA-MB-231 breast): 35.4 µM | GI50 (UO-31 renal): 12.2 µM | TGI (UO-31 renal): > 100 µM | GI50 (SW-620 colon): 28.5 µM | TGI (SW-620 colon): 61.6 µM | GI50 (SK-MEL-5 melanoma): 13.2 µM | TGI (SK-MEL-5 melanoma): 26 µM | GI50 (SR leukemia): 2.45 µM | TGI (SR leukemia): 10.9 µM | GI50 (SK-MEL-28 melanoma): 14.2 µM | TGI (SK-MEL-28 melanoma): 46.2 µM | GI50 (PC-3 prostate): 34.1 µM | TGI (PC-3 prostate): 98.8 µM | GI50 (OVCAR-3 ovarian): 7.32 µM | TGI (OVCAR-3 ovarian): 24.9 µM | GI50 (M14 melanoma): 13.2 µM | TGI (M14 melanoma): 31.9 µM | GI50 (HL-60(TB) leukemia): 26.7 µM
